Experimental data as given in patent publication US20250009697A1, “COMPOSITION FOR INCREASING AMOUNT OF FOOD INGESTED AND/OR IMPROVING ANOREXIA, AND COMPOSITION FOR ACTIVATING TRANSIENT RECEPTOR POTENTIAL ANKYRIN 1” (HOUSE FOODS GROUP INC., priority 2021, published 2025).

Legend:
[1] = Anorexia Improving Test 3: cumulative amounts of food ingested of mice, rhein with or without A-967079; type: in vivo; details: oral; for Cumulative amounts of food ingested of mice: rhein 100 μmol/kg body weight, A-967079 10 μmol/kg body weight
Procedure: Male ICR mice were housed in individual cages in which ALPHA-dri (Shepherd Specialty Papers) was laid, and were acclimatized and raised for at least one week or more while a powder feed (CE-2, CLEA Japan, Inc.) was given to the mice by using a powder feeder for mice (SN-950, Shinano Manufacturing Co., Ltd.). Then, for several days before the experiment, handling and oral administration training using a feeding needle (FG4202, Fuchigami Kikai Co., Ltd.) were conducted every day. To 9 week-old mice under ad libitum feeding conditions, a carrier solution (containing 2% of dimethyl sulfoxide and 98% of a 0.5% methyl cellulose solution in volume ratio) or a rhein solution (obtained by dissolving 8.53 mg of rhein in 1 mL of the carrier solution) was orally administered from 9:20 a.m. (10 mL/kg body weight). The dosage of rhein was 300 μmol/kg body weight in terms of molar concentration. Then, a feeder the mass of which had been measured in advance was set in the cage at 9:30 a.m. The masses of the feeder and the feed spilled in the cage 0.5, 1, 2, and 3 hours after the start of the feeding experiment were measured, and the ingested mass (g) at each time was measured (n=6). The ingested mass (g) of each mouse was measured in the same manner as in anorexia improving test 2 (the above item 5) except that 10 mL/kg body weight of a carrier solution, a rhein solution (100 μmol/kg body weight), an A-967079 solution (10 μmol/kg body weight), or a mixed solution of A-967079 and rhein (in 10 μmol/kg body weight and 100 μmol/kg body weight, respectively) was orally administered to the mouse. Results obtained by calculating the cumulative amounts of food ingested and conducting a multiple comparison (multiple t-test) by the Dunn-Bonferroni method are shown in Table 12.

[2] = Anorexia Improving Test 2: cumulative amounts of food ingested of mice, rhein; type: in vivo
Procedure: Male ICR mice were housed in individual cages in which ALPHA-dri (Shepherd Specialty Papers) was laid, and were acclimatized and raised for at least one week or more while a powder feed (CE-2, CLEA Japan, Inc.) was given to the mice by using a powder feeder for mice (SN-950, Shinano Manufacturing Co., Ltd.). Then, for several days before the experiment, handling and oral administration training using a feeding needle (FG4202, Fuchigami Kikai Co., Ltd.) were conducted every day.
To 9 week-old mice under ad libitum feeding conditions, a carrier solution (containing 2% of dimethyl sulfoxide and 98% of a 0.5% methyl cellulose solution in volume ratio) or a rhein solution (obtained by dissolving 8.53 mg of rhein in 1 mL of the carrier solution) was orally administered from 9:20 a.m. (10 mL/kg body weight). […] Then, a feeder the mass of which had been measured in advance was set in the cage at 9:30 a.m. The masses of the feeder and the feed spilled in the cage 0.5, 1, 2, and 3 hours after the start of the feeding experiment were measured, and the ingested mass (g) at each time was measured (n=6).

## O=C(O)c1cc(O)c2c(c1)C(=O)c1cccc(O)c1C2=O [Rhein, rhein]
[1]; 0.5 hour after the administration
  Cumulative amounts of food ingested of mice: 0.21 ± 0.033 g
[1]; 1 hour after the administration
  Cumulative amounts of food ingested of mice: 0.25 ± 0.027 g
[1]; 2 hours after the administration
  Cumulative amounts of food ingested of mice: 0.42 ± 0.020 g
[1]; 3 hours after the administration
  Cumulative amounts of food ingested of mice: 0.49 ± 0.035 g
[1]; rhein 100 μmol/kg with A-967079 10 μmol/kg
  Significant increase in the cumulative amounts of food ingested where A-967079 was administered (in words): not observed
[2]; 100 μmol/kg body weight, FIG. 4
  Cumulative amounts of food ingested of mice (in words): significantly increased
[2]; oral, 300 μmol/kg body weight, 0.5 to 3 hours, FIG. 3
  Cumulative amounts of food ingested of mice (in words): increased
